Consider 15 molecules from US20250179066A1, “ZWITTERIONIC ANTIBACTERIAL COMPOUNDS” (Hoffmann-La Roche Inc., priority 2022, published 2025).

The structures appear in SMILES notation. Where a name gives a salt, the structure may show the parent alone.

For the assay, the system named is Acinetobacter baumannii ATCC17961. Put plainly: Antimicrobial susceptibility testing: 90% growth inhibitory concentration (IC90) determination. The assay is classed as cell-based. The following applies: Acinetobacter baumannii, ATCC17961, 16 h, 90% growth inhibitory concentration against Acinetobacter baumannii ATCC17961, Iso-Sensitest broth, OD 600 nm over 16 h; read-out: ATCC 17961 IC90. The essentials:
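Twofold serial dilutions (e.g. 10 to 0.0195 μM final) in Iso-Sensitest broth inoculated at ~5×10^5 CFU/mL, incubated at 35±2° C. OD600 read every minute for 16 h; IC90 is the concentration inhibiting 90% of growth during logarithmic phase.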
Turning to `Cn1c(-c2cn(-c3ccc(OCCN)cn3)nc2C(F)(F)F)cnc1C(=O)Nc1ccc(C(=O)N2CCN(C(=O)C3CC[N+](CC(=O)O)(CC4CNC4)CC3)CC2)c(Cl)c1` (stereo not drawn) [Example 2, 2-[4-[4-[4-[[5-[1-[5-(2-aminoethoxy)-2-pyridyl]-3-(trifluoromethyl)pyrazol-4-yl]-1-methyl-imidazole-2-carbonyl]amino]-2-chloro-benzoyl]piperazine-1-carbonyl]-1-(azetidin-3-ylmethyl)piperidin-1-ium-1-yl]acetic acid. 1:1 2,2,2-trifluoroacetic acid. 1:1 2,2,2-trifluoroacetate], the IC90 is 330 nM.

As to `COCCNc1ccc(-n2cc(-c3cnc(C(=O)Nc4ccc(C(=O)N5CCN(C(=O)[C@H]6CC[N@+](CC(=O)O)(CC7CNC7)CC6)CC5)c(Cl)c4)n3C)c(C(F)(F)F)n2)c(F)c1` [Example 185, cis-2-[1-(azetidin-3-ylmethyl)-4-[4-[2-chloro-4-[[5-[1-[2-fluoro-4-(2-methoxyethylamino)phenyl]-3-(trifluoromethyl)pyrazol-4-yl]-1-methyl-imidazole-2-carbonyl]amino]benzoyl]piperazine-1-carbonyl]piperidin-1-ium-1-yl]acetic acid. 1:1 2,2,2-trifluoroacetate], the IC90 is 196 nM.

In the case of `Cn1c(-c2cn(-c3ccc(NC[C@@H]4C[C@H](F)CN4)cn3)nc2C(F)(F)F)cnc1C(=O)Nc1ccc(C(=O)N2CCN(C(=O)C3CC[N+](CC(=O)O)(CC4CNC4)CC3)CC2)c(Cl)c1` (stereo partly drawn) [Example 57, 2-[1-(azetidin-3-ylmethyl)-4-[4-[2-chloro-4-[[5-[1-[5-[[(2S,4S)-4-fluoropyrrolidin-2-yl]methylamino]-2-pyridyl]-3-(trifluoromethyl)pyrazol-4-yl]-1-methyl-imidazole-2-carbonyl]amino]benzoyl]piperazine-1-carbonyl]piperidin-1-ium-1-yl]acetic acid. 1:1 2,2,2-trifluoroacetic acid. 1:1 2,2,2-trifluoroacetate], the IC90 came out at 610 nM.

In the case of `Cn1c(-c2cn(-c3cc4[nH]c(C(=O)N5CCOC(F)(F)C5)cc4cn3)nc2C(F)(F)F)cnc1C(=O)Nc1ccc(C(=O)N2CCN(C(=O)[C@H]3CC[N@+](CC(=O)O)(CC4CNC4)CC3)CC2)c(Cl)c1` [Example 119, cis-2-[1-(azetidin-3-ylmethyl)-4-[4-[2-chloro-4-[[5-[1-[2-(2,2-difluoromorpholine-4-carbonyl)-1H-pyrrolo[3,2-c]pyridin-6-yl]-3-(trifluoromethyl)pyrazol-4-yl]-1-methyl-imidazole-2-carbonyl]amino]benzoyl]piperazine-1-carbonyl]piperidin-1-ium-1-yl]acetic acid. 1:1 2,2,2-trifluoroacetate], the IC90 worked out at 236 nM.

As for `CN1CCN(C(=O)c2c[nH]c3cc(-n4cc(-c5cnc(C(=O)Nc6ccc(C(=O)N7CCN(C(=O)[C@H]8CC[N@+](CC(=O)O)(CC9CNC9)CC8)CC7)c(Cl)c6)n5C)c(C(F)(F)F)n4)ncc23)CC1` [Example 148, cis-2-[1-(azetidin-3-ylmethyl)-4-[4-[2-chloro-4-[[1-methyl-5-[1-[3-(4-methylpiperazine-1-carbonyl)-1H-pyrrolo[3,2-c]pyridin-6-yl]-3-(trifluoromethyl)pyrazol-4-yl]imidazole-2-carbonyl]amino]benzoyl]piperazine-1-carbonyl]piperidin-1-ium-1-yl]acetic acid. 1:1 2,2,2-trifluoroacetate], the IC90 was 349 nM.

As for `CC(Cn1ccc2nc(-n3cc(-c4cnc(C(=O)Nc5ccc(C(=O)N6CCN(C(=O)[C@H]7CC[N@+](CC(=O)O)(CC8CNC8)CC7)CC6)c(Cl)c5)n4C)c(C(F)(F)F)n3)ccc21)C(N)=O` (stereo partly drawn) [Example 161, 2-[4-[4-[4-[[5-[1-[1-(3-amino-2-methyl-3-oxo-propyl)pyrrolo[3,2-b]pyridin-5-yl]-3-(trifluoromethyl)pyrazol-4-yl]-1-methyl-imidazole-2-carbonyl]amino]-2-chloro-benzoyl]piperazine-1-carbonyl]-1-(azetidin-3-ylmethyl)piperidin-1-ium-1-yl]acetic acid;2,2,2-trifluoroacetate], the IC90 came out at 390 nM.

For the molecule `COCCNc1ccc(-n2cc(-c3cnc(C(=O)Nc4ccc(C(=O)N5CCN(C(=O)[C@H]6CC[N@+](CC(=O)O)(CC7CNC7)CC6)CC5)c(Cl)c4)n3C)c(C(F)(F)F)n2)nc1` [Example 31, cis-2-[1-(Azetidin-3-ylmethyl)-4-[4-[2-chloro-4-[[5-[1-[5-(2-methoxyethylamino)-2-pyridyl]-3-(trifluoromethyl)pyrazol-4-yl]-1-methyl-imidazole-2-carbonyl]amino]benzoyl]piperazine-1-carbonyl]piperidin-1-ium-1-yl]acetic Acid;2,2,2-trifluoroacetate], the IC90 turned out to be 370 nM.

For the molecule `Cn1c(-c2cn(-c3cc4[nH]c(C(=O)N5CCOCC5)cc4cn3)nc2C(F)(F)F)cnc1C(=O)Nc1ccc(C(=O)N2CCN(C(=O)[C@H]3CC[N@+](CC(=O)O)(CC4CNC4)CC3)CC2)c(Cl)c1` [Example 139, cis-2-[1-(azetidin-3-ylmethyl)-4-[4-[2-chloro-4-[[1-methyl-5-[1-[2-(morpholine-4-carbonyl)-1H-pyrrolo[3,2-c]pyridin-6-yl]-3-(trifluoromethyl)pyrazol-4-yl]imidazole-2-carbonyl]amino]benzoyl]piperazine-1-carbonyl]piperidin-1-ium-1-yl]acetic acid. 1:1 2,2,2-trifluoroacetate], the IC90 worked out at 172 nM.

Consider `Cn1c(-c2cn(-c3ccc(N)cn3)nc2C(F)(F)F)cnc1C(=O)Nc1ccc(C(=O)N2CCN(C(=O)[C@H]3CC[N@@+](CC(=O)O)(CC4CNC4)CC3)CC2)c(Cl)c1` [Example 64, trans-2-[4-[4-[4-[[5-[1-(5-amino-2-pyridyl)-3-(trifluoromethyl)pyrazol-4-yl]-1-methyl-imidazole-2-carbonyl]amino]-2-chloro-benzoyl]piperazine-1-carbonyl]-1-(azetidin-3-ylmethyl)piperidin-1-ium-1-yl]acetic acid. 1:1 2,2,2-trifluoroacetic acid. 1:1 2,2,2-trifluoroacetate], for which the IC90 was 680 nM.

In the case of `Cn1c(-c2cn(-c3ccc(N)cc3F)nc2C(F)(F)F)cnc1C(=O)Nc1ccc(C(=O)N2CCN(C(=O)N3CC[N+](CCCN)(CC(=O)O)CC3)CC2)c(Cl)c1` [Example 141, 2-[4-[4-[4-[[5-[1-(4-amino-2-fluoro-phenyl)-3-(trifluoromethyl)pyrazol-4-yl]-1-methyl-imidazole-2-carbonyl]amino]-2-chloro-benzoyl]piperazine-1-carbonyl]-1-(3-aminopropyl)piperazin-1-ium-1-yl]acetic acid. 1:1 2,2,2-trifluoroacetate], the IC90 stood at 242 nM.

For `Cn1c(-c2cn(-c3ccc(N)cn3)nc2C(F)(F)F)cnc1C(=O)Nc1ccc(C(=O)N2CCC(C(=O)N3CC[N+](CC(=O)O)(CC4CNC4)CC3)CC2)c(Cl)c1` [Example 87, 2-[4-[1-[4-[[5-[1-(5-amino-2-pyridyl)-3-(trifluoromethyl)pyrazol-4-yl]-1-methyl-imidazole-2-carbonyl]amino]-2-chloro-benzoyl]piperidine-4-carbonyl]-1-(azetidin-3-ylmethyl)piperazin-1-ium-1-yl]acetic acid. 1:1 2,2,2-trifluoroacetate], the IC90 amounted to 1410 nM.

As for `Cn1c(-c2cn(-c3ccc(NCCN)nc3)nc2C(F)(F)F)cnc1C(=O)Nc1ccc(C(=O)N2CCN(C(=O)C3CC[N+](CC(=O)O)(CC4CNC4)CC3)CC2)c(Cl)c1` (stereo not drawn) [Example 8, 2-[4-[4-[4-[[5-[1-[6-(2-aminoethylamino)-3-pyridyl]-3-(trifluoromethyl)pyrazol-4-yl]-1-methyl-imidazole-2-carbonyl]amino]-2-chloro-benzoyl]piperazine-1-carbonyl]-1-(azetidin-3-ylmethyl)piperidin-1-ium-1-yl]acetic acid. 1:1 2,2,2-trifluoroacetate], the concentration for an effect of 90% (IC90) stood at 1550 nM.

Regarding `Cn1c(-c2cn(-c3ccc(NCCO)cc3F)nc2C(F)(F)F)cnc1C(=O)Nc1ccc(C(=O)N2CCN(C(=O)[C@H]3CC[N@+](CC(=O)O)(CC4CNC4)CC3)CC2)c(Cl)c1` [Example 178, cis-2-[1-(azetidin-3-ylmethyl)-4-[4-[2-chloro-4-[[5-[1-[2-fluoro-4-(2-hydroxyethylamino)phenyl]-3-(trifluoromethyl)pyrazol-4-yl]-1-methyl-imidazole-2-carbonyl]amino]benzoyl]piperazine-1-carbonyl]piperidin-1-ium-1-yl]acetic acid. 1:1 formate], the IC90 came to 135 nM.

Consider `CNC(=O)c1c[nH]c2cc(-n3cc(-c4cnc(C(=O)Nc5ccc(C(=O)N6CCN(C(=O)[C@H]7CC[N@+](CC(=O)O)(CC8CNC8)CC7)CC6)c(Cl)c5)n4C)c(C(F)(F)F)n3)ncc12` [Example 156, cis-2-[1-(azetidin-3-ylmethyl)-4-[4-[2-chloro-4-[[1-methyl-5-[1-[3-(methylcarbamoyl)-1H-pyrrolo[3,2-c]pyridin-6-yl]-3-(trifluoromethyl)pyrazol-4-yl]imidazole-2-carbonyl]amino]benzoyl]piperazine-1-carbonyl]piperidin-1-ium-1-yl]acetic acid. 1:1 2,2,2-trifluoroacetate], for which the IC90 amounted to 156 nM.

On to `Cn1c(-c2cn(-c3ccc4c(ccn4C)n3)nc2C(F)(F)F)cnc1C(=O)Nc1ccc(C(=O)N2CCN(C(=O)[C@H]3CC[N@+](CC(=O)O)(CC4CNC4)CC3)CC2)c(Cl)c1` [Example 39, cis-2-[1-(azetidin-3-ylmethyl)-4-[4-[2-chloro-4-[[1-methyl-5-[1-(1-methylpyrrolo[3,2-b]pyridin-5-yl)-3-(trifluoromethyl)pyrazol-4-yl]imidazole-2-carbonyl]amino]benzoyl]piperazine-1-carbonyl]piperidin-1-ium-1-yl]acetic acid. 1:1 2,2,2-trifluoroacetate], for which the concentration for an effect of 90% (IC90) stood at 430 nM.

For orientation: IC90 means the point of the concentration-response curve where the effect stands at 90%.
